From patent US5624923A, “Tricyclic diazepine vasopressin antagonists and oxytocin antagonists” (priority 1995, dated 1997)
pIC50: −log10 of the molar value. Values joined by “and” are separate entries in the source; they are usually repeats but may differ in a detail not shown here. Equal entries are not always repeated.

How the values were obtained:
Vasopressin V2 = Vasopressin V2 Antagonist Activity in Conscious Hydrated Rats; type: in vivo, rat; settings: AVP 0.4 μg/kg i.p.
Description: Vasopressin V2 Antagonist Activity in Conscious Hydrated Rats
Conscious hydrated rats are treated with compounds under study from 0.1 to 100 mg/kg orally or vehicle. Two to four rats are used for each compound. One hour later, arginine vasopressin (AVP, antidiuretic hormore, ADH) dissolved in peanut oil is administered at 0.4 μg/kg intraperitoneally. Two rats in each test would not receive arginine vasopressin but only the vehicle (peanut oil) to serve as water-loading control. Twenty minutes later each rat is given 30 mL/kg of deionized water orally by gavage and is placed individually in a metabolic cage equipped with a funnel and a graduated glass cylinder to collect urine for four hours. Urine volume is measured and osmolality analyzed by use of a Fiske One-Ten osmometer (Fiske Assoc., Norwood, Mass., USA). Urinary sodium, potassium, and chloride are analyzed by use of ion-specific electrodes in a Beckman E3 (Electrolyte 3) Analyzer.

Vasopressin V1 = Vasopressin V1 Antagonist Activity in Conscious Rats (vasopressin vasopressor response); type: in vivo, rat; design: Average Change: unit not given here; settings: SHR
Description: Vasopressin V1 Antagonist Activity in Conscious Rats
Conscious rats are restrained in a supine position with elastic tape. The area at the base of the tail is locally anesthetized by subcutaneous infiltration with 2% procaine (0.2 ml). Using aseptic technique the ventral caudal tail artery is isolated and a cannula made of PE 10 and 20 (heat-fused) tubing is passed into the lower abdominal aorta. The cannula is secured, heparinized (1000 i.u./cc), sealed and the wound closed with one or two stitches of Dexon 4-0. The caudal vein is also cannulated in the same manner for intravenous drug administration. The duration of the surgery is approximately 5 minutes. Additional local anesthesia (2% procaine or lidocaine) is provided as needed.
The animals are placed in plastic restraining cages in an upright position. The cannula is attached to a Statham P23Db pressure transducer and pulsatile blood pressure is recorded. […] The vasopressin injections are repeated 30,60,90,120,180,240 and 300 min. later. Percentage of antagonism by the compound is calculated using the pre-drug vasopressin vasopressor response as 100%.

oxytocin receptors = molecular target: T1, oxytocin receptors (Rattus norvegicus, UniProt P70536); assay: Oxytocin Receptor Binding
T1 construct: The uteri are dissected out, cleaned of fat and connective tissues; from tissue; host or cells: uterus of DES-treated female Sprague-Dawley rats
T1 sequence (P70536 1-388): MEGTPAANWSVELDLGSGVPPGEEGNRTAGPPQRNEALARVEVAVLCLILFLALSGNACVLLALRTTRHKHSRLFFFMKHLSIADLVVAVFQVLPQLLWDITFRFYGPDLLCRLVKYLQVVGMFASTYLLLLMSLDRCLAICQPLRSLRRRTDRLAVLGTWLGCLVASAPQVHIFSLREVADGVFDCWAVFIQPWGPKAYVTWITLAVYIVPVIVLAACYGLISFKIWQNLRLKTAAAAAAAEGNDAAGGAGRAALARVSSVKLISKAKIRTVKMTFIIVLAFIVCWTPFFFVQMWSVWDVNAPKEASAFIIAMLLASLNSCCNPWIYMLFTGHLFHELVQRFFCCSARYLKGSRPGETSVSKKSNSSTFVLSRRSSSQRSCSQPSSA
Description: Oxytocin Receptor Binding
Female Sprague-Dawley rats weighing approximately 200-250 g are injected intramuscularly (i.m.) with 0.3 mg/kg of body weight of diethylstilbestrol (DES). The rats are sacrificed 18 hours later under pentobarbital anesthesia. The uteri are dissected out, cleaned of fat and connective tissues and rinsed in 50 ml of normal saline. The tissue pooled from six rats is homogenized in 50 ml of […] Tris.HCl, containing 0.5 mM dithiothreitol and 1.0 mM EDTA, adjusted to pH 7.4, using a polytron at setting 6 with three passes of 10 sec each. The homogenate is passed through two (2) layers of cheesecloth and the filtrate centrifuged at 1000× g for 10 min. The clear supernatant is removed and recentrifuged at 165,000× g for 30 min. The resulting pellet containing the oxytocin receptors is resuspended in 50.0 mM Tris.HCl containing 5.0 mM MgCl2 at pH 7.4, to give a protein concentration of 2.5 mg/ml of tissue suspension. This preparation is used in subsequent binding assays with [^3 H]Oxytocin.
Binding of 3,5-[^3 H]Oxytocin ([^3 H]OT) to its receptors is done in microtiter plates using [^3 H]OT, at various concentrations, in an assay buffer of 50.0 mM Tris.HCl, pH 7.4 and containing 5.0 mM MgCl2, and a mixture of protease inhibitors: BSA, 0.1 mg; aprotinin, 1.0 mg; 1,10-phenanthroline, 2.0 mg; […], 10.0 mg; and PMSF, 0.3 mg per 100 ml of buffer solution. Non-specific binding is determined in the presence of 1.0 uM unlabeled OT. The binding reaction is terminated after 60 min , at 22° C. by rapid filtration through glass fiber filters using a Brandel® cell harvester (Biomedical Research and Development Laboratories, Inc., Gaithersburg, Md.). Competition experiments are conducted at equilibrium using 1.0 nM [^3 H]OT and varying the concentration of the displacing agents. The concentrations of agent displacing 50% of [^3 H]OT at its sites (IC50) are calculated by a computer assisted LUNDON-2 program (LUNDON SOFTWARE INC., Ohio, USA).

[1] = 10 mg/kg i.v., VAS 0.01 i.u./kg, 60 min
[2] = 10 mg/kg i.v., VAS 0.01 i.u./kg, 90 min
[3] = 10 mg/kg i.v., VAS 0.01 i.u./kg, 120 min
[4] = 10 mg/kg i.v., VAS 0.01 i.u./kg, 180 min
[5] = 10 mg/kg i.v., VAS 0.01 i.u./kg, 240 min
[6] = 10 mg/kg i.v., VAS 0.01 i.u./kg, 300 min
[7] = 10 mg/kg i.v., VAS 0.02 i.u./kg, 60 min
[8] = 10 mg/kg i.v., VAS 0.02 i.u./kg, 90 min
[9] = 10 mg/kg i.v., VAS 0.02 i.u./kg, 120 min
[10] = 10 mg/kg i.v., VAS 0.02 i.u./kg, 180 min
[11] = 10 mg/kg i.v., VAS 0.02 i.u./kg, 240 min
[12] = 10 mg/kg i.v., VAS 0.02 i.u./kg, 300 min
[13] = 20 mg/kg i.v., VAS 0.01 i.u./kg, 60 min
[14] = 20 mg/kg i.v., VAS 0.01 i.u./kg, 90 min
[15] = 20 mg/kg i.v., VAS 0.01 i.u./kg, 120 min
[16] = 20 mg/kg i.v., VAS 0.01 i.u./kg, 180 min
[17] = 20 mg/kg i.v., VAS 0.01 i.u./kg, 240 min
[18] = 20 mg/kg i.v., VAS 0.01 i.u./kg, 300 min
[19] = 20 mg/kg i.v., VAS 0.02 i.u./kg, 60 min
[20] = 20 mg/kg i.v., VAS 0.02 i.u./kg, 90 min
[21] = 20 mg/kg i.v., VAS 0.02 i.u./kg, 120 min
[22] = 20 mg/kg i.v., VAS 0.02 i.u./kg, 180 min
[23] = 20 mg/kg i.v., VAS 0.02 i.u./kg, 240 min
[24] = 20 mg/kg i.v., VAS 0.02 i.u./kg, 300 min

O=C(Nc1ccc(C(=O)N2Cc3cccn3-c3ccccc32)cc1)c1cc(Cl)ccc1Cl [Example 16, N-[4-(pyrrolo[1,2-a]quinoxalin-5(4H)-ylcarbonyl)phenyl]-2,5-dichloro-benzamide]
Osmolality (Vasopressin V2; 10 mg/kg orally): 1242 mOsm/kg
Urine Volume (Vasopressin V2; 10 mg/kg orally): 5.5 ml/4 hrs
Osmolality (Vasopressin V2; 30 mg/kg orally): 1295 mOsm/kg
Urine Volume (Vasopressin V2; 30 mg/kg orally): 8 ml/4 hrs

Cc1cc(C(=O)N2Cc3cccn3Cc3ccccc32)ccc1N [Example 95, 10,11-Dihydro-10-(4-amino-3-methylbenzoyl)-5H-pyrrolo[2,1-c][1,4]benzodiazepine]
% Inhibition (Vasopressin V1; 10 mg/kg i.v., VAS 0.01 i.u./kg, 30 min): 35% and 65%
% Inhibition (Vasopressin V1; [1]): 78%
Average Change (Vasopressin V1; [1]): 7
% Inhibition (Vasopressin V1; [2]): 58%
Average Change (Vasopressin V1; [2]): 13.5
% Inhibition (Vasopressin V1; [3]): 58%
Average Change (Vasopressin V1; [3]): 13.5
% Inhibition (Vasopressin V1; [4]): 52%
Average Change (Vasopressin V1; [4]): 15.5
% Inhibition (Vasopressin V1; [5]): 43%
Average Change (Vasopressin V1; [5]): 18.5
% Inhibition (Vasopressin V1; [6]): 52%
Average Change (Vasopressin V1; [6]): 15.5
% Inhibition (Vasopressin V1; [7]): 78%
Average Change (Vasopressin V1; [7]): 12.5
% Inhibition (Vasopressin V1; [8]): 72%
Average Change (Vasopressin V1; [8]): 16
% Inhibition (Vasopressin V1; [9]): 70%
Average Change (Vasopressin V1; [9]): 17.5
% Inhibition (Vasopressin V1; [10]): 72%
Average Change (Vasopressin V1; [10]): 16
% Inhibition (Vasopressin V1; [11]): 31%
Average Change (Vasopressin V1; [11]): 39.5
% Inhibition (Vasopressin V1; [12]): 27%
Average Change (Vasopressin V1; [12]): 42
% Inhibition (Vasopressin V1; [13]): 67%
Average Change (Vasopressin V1; [13]): 15
% Inhibition (Vasopressin V1; [14]): 70%
Average Change (Vasopressin V1; [14]): 13.5
% Inhibition (Vasopressin V1; [15]): 47%
Average Change (Vasopressin V1; [15]): 24
% Inhibition (Vasopressin V1; [16]): 48%
Average Change (Vasopressin V1; [16]): 23.5
% Inhibition (Vasopressin V1; [17]): 53%
Average Change (Vasopressin V1; [17]): 21.5
% Inhibition (Vasopressin V1; [18]): 46%
Average Change (Vasopressin V1; [18]): 24.5
% Inhibition (Vasopressin V1; [19]): 68%
Average Change (Vasopressin V1; [19]): 19.5
% Inhibition (Vasopressin V1; [20]): 61%
Average Change (Vasopressin V1; [20]): 24
% Inhibition (Vasopressin V1; [21]): 53%
Average Change (Vasopressin V1; [21]): 28.5
% Inhibition (Vasopressin V1; [22]): 44%
Average Change (Vasopressin V1; [22]): 34
% Inhibition (Vasopressin V1; [23]): 44%
Average Change (Vasopressin V1; [23]): 34
% Inhibition (Vasopressin V1; [24]): 39%
Average Change (Vasopressin V1; [24]): 37.5

Nc1ccc(C(=O)N2Cc3cccn3Cc3ccccc32)c(Cl)c1 [Example 416, 10,11-Dihydro-10-(2-chloro-4-aminobenzoyl)-5H-pyrrolo[2,1-c][1,4]benzodiazepine]
pIC50 (oxytocin receptors; 1.0 nM [3H]oxytocin): 5.13
inhibition at 10 µM (oxytocin receptors; [3H]oxytocin): 44.6%

Cc1ccc(F)cc1C(=O)Nc1ccc(C(=O)O)cc1 [Example 417, 4-[(5-Fluoro-2-methylbenzoyl)amino]benzoic acid]
inhibition at 10 µM (oxytocin receptors; [3H]oxytocin): 21%

Cc1c(F)cccc1C(=O)Nc1ccc(C(=O)O)cc1 [Example 418, 4-[(3-fluoro-2-methylbenzoyl)amino]-benzoic acid]
inhibition at 10 µM (oxytocin receptors; [3H]oxytocin): 39%

Cc1ccc(F)cc1C(=O)Nc1ccc(C(=O)O)c(Cl)c1 [Example 419, 4-[(5-fluoro-2-methylbenzoyl)amino]-2-chlorobenzoic acid]
inhibition at 10 µM (oxytocin receptors; [3H]oxytocin): 28%

Cc1c(F)cccc1C(=O)Nc1ccc(C(=O)O)c(Cl)c1 [Example 420]
inhibition at 10 µM (oxytocin receptors; [3H]oxytocin): 16%

O=C(O)c1ccc(NC(=O)c2ccc(Cl)cc2Cl)cc1Cl [Example 429, 4-[(2,4-Dichlorobenzoyl)amino]-2-chlorobenzoic acid]
inhibition at 10 µM (oxytocin receptors; [3H]oxytocin): 11%

Cc1ccccc1C(=O)Nc1ccc(C(=O)O)c(Cl)c1 [Example 430, 4-[(2-methylbenzoyl)amino]-2-chloro-benzoic acid]
inhibition at 10 µM (oxytocin receptors; [3H]oxytocin): 16%

Cc1ccccc1C(=O)Nc1c(C)cc(C(=O)O)cc1C [Example 431, 4-[(2-methylbenzoyl)amino]-3,5-di-methylbenzoic acid]
inhibition at 10 µM (oxytocin receptors; [3H]oxytocin): 18%

Cc1cc(C(=O)O)cc(C)c1NC(=O)c1ccc(Cl)cc1Cl [Example 432, 4-[(2,4-dichlorobenzoyl)amino]-3,5-dimethylbenzoic acid]
inhibition at 10 µM (oxytocin receptors; [3H]oxytocin): 19%

Cc1ccccc1C(=O)Nc1ccc(C(=O)O)cc1Cl [Example 433, 4-[(2-methylbenzoyl)amino]-3-chloro-benzoic acid]
inhibition at 10 µM (oxytocin receptors; [3H]oxytocin): 12%

Cc1c(F)cccc1C(=O)Nc1ccc(C(=O)O)cc1Cl [Example 435, 4-[(3-fluoro-2-methylbenzoyl)amino]-3-chlorobenzoic acid]
inhibition at 10 µM (oxytocin receptors; [3H]oxytocin): 10%

Cc1ccc(F)cc1C(=O)Nc1ccc(C(=O)O)cc1Cl [Example 436, 4-[(5-fluoro-2-methylbenzoyl)amino]-3-chlorobenzoic acid]
inhibition at 10 µM (oxytocin receptors; [3H]oxytocin): 32%

O=C(Nc1ccc(C(=O)O)c(Cl)c1)c1cccc(F)c1 [Example 441, 4-[[3-fluorobenzoyl]amino]-2-chloro-benzoic acid]
inhibition at 1 µM (oxytocin receptors; dose 1 μM, [3H]oxytocin): 22%

CCOC(=O)c1ccc2n1Cc1ccccc1N(C(=O)c1ccc([N+](=O)[O-])cc1Cl)C2 [Example 443, Ethyl 10,11-dihydro-10-(2-chloro-4-nitrobenzoyl)-5H-pyrrolo[2,1-c][1,4]benzodiazepine-3-carboxylate]
inhibition at 10 µM (oxytocin receptors; [3H]oxytocin): 70%
